Data on one molecule can be found in publication PMC6673703, “14-3-3 signal adaptor and scaffold proteins mediate GPCR trafficking” (Scientific Reports, 2019).

The target of this experiment is T1, sphingosine-1-phosphate receptor 1 (S1PR1) (Homo sapiens, UniProt P21453).
T1 construct: full-length, C-terminal TEV fusion
The experiment can be described thus: LinkLight S1PR1/β-arrestin interaction assay in HEK293 cells. In kind it is cell-based.

T1 sequence (P21453 whole entry, the tested form may be a part): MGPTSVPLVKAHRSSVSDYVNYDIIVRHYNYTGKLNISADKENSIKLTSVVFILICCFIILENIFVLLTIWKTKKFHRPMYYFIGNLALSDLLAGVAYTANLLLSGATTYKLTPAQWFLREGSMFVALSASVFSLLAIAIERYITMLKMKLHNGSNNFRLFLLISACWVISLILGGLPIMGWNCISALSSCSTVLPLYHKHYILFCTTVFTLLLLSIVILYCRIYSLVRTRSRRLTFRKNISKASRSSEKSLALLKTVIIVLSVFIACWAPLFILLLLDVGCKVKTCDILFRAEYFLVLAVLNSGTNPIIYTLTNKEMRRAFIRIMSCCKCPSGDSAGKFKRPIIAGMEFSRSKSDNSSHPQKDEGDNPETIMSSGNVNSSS
T1 sequence (P32121 whole entry partner, the tested form may be a part): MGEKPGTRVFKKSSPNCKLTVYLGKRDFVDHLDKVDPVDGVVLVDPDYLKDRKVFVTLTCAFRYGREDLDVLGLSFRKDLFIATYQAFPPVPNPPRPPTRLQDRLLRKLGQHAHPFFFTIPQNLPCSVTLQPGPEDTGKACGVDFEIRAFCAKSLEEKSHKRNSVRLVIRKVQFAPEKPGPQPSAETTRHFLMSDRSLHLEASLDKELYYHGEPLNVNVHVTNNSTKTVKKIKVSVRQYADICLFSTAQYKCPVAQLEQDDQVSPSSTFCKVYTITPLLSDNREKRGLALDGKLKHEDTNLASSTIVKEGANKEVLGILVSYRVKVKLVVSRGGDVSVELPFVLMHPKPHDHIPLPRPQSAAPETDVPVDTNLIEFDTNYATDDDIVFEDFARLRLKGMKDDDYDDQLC

For orientation: EC50 means the midpoint of the concentration-response curve. Read a high EC50 as weaker potency. Molecule `CCCCCCCCCCCCC/C=C/[C@@H](O)[C@@H](N)COP(=O)(O)O` [S1P] displayed an EC50 of 129 nM.
